# Tested on: ruminal epithelium
# Assay: Ussing chamber: transepithelial current and conductance
# Assay type: cell-based
# Conditions: sheep ruminal epithelium, mucosal addition, short-circuit mode, 37° C.
# From the text: All sheep were slaughtered in accordance with German laws for the protection of animals. Removal of tissue occurred directly after death, was stripped and transported to the laboratory in a warm and gassed transport buffer.
# The tissue was mounted into conventional Ussing chambers with an exposure area of 3.14 cm^2 (as described in (Martens and Gabel, 1988, Transport of Na and Cl across the epithelium of ruminant forestomachs: rumen and omasum. A review. Comparative Biochemistry and Physiology Part A: Physiology 90, 569-575)). The chambers contained 16 ml of mucosal and serosal buffer, which was circulated with a gas lift system and warmed to 37° C. with a water jacket.
# After ten minutes the chambers were clamped to short circuit mode (Mussler Scientific Instruments, Aachen, Germany). Transepithelial current (Isc) and conductance (Gt) were measured continuously.
# After an equilibration time of about 30 min under short-circuit conditions, the Ussing chambers were divided into two groups, depending on the transepithelial conductance of the tissues inside the chambers. Group 1 (TRP-group) and Group 2 (TRP-PG-group.)
# Depending on the group 4.8 μl of TRP agonist combined with propylene glycol or 2.4 mg of TRP Agonist was added to the mucosal side of the tissues. Transepithelial current (Isc) and transepithelial conductance (Gt) were measured continuously. […]
compound,measurement,value
"CC1CCC(C(C)C)C(O)C1 (centres unmarked) [TRP (menthol), menthol]","Transepithelial conductance (Gt), maximum increase after addition, mean",+0.563
same,"Transepithelial current (Isc), maximum increase after addition, mean",+0.727

# Source: patent US20210127709A1, “FEED ADDITIVE COMPRISING A TRP MODULATOR” (PerformaNat GmbH, priority 2018, published 2021)
